From patent publication US10112934B2, “(Cyano-dimethyl-methyl)-isoxazoles and -[1,3,4]thiadiazoles” (Centrexion Therapeutics Corporation, priority 2013, dated 2018) come the findings set out here.

The target in data set [1] is human MDR1 P-gp (Homo sapiens (Human), UniProt P08183). The data set is described as follows: MDCK assay: efflux in MDCK cells transfected with the human MDR1 gene (assay 3). In kind it is in vitro ADME. As to conditions: MDCK-MDR1 cell monolayers, pH 7.4, 37° C., read-out: MDCK efflux ratio (BA/AB). The protocol: C. Assessment of Efflux in Madin-Darby Canine Kidney Cells Transfected with the Human MDR1 Gene (MDCK Assay) (Assay 3)
Chain of human MDR1 P-gp (P08183 whole entry): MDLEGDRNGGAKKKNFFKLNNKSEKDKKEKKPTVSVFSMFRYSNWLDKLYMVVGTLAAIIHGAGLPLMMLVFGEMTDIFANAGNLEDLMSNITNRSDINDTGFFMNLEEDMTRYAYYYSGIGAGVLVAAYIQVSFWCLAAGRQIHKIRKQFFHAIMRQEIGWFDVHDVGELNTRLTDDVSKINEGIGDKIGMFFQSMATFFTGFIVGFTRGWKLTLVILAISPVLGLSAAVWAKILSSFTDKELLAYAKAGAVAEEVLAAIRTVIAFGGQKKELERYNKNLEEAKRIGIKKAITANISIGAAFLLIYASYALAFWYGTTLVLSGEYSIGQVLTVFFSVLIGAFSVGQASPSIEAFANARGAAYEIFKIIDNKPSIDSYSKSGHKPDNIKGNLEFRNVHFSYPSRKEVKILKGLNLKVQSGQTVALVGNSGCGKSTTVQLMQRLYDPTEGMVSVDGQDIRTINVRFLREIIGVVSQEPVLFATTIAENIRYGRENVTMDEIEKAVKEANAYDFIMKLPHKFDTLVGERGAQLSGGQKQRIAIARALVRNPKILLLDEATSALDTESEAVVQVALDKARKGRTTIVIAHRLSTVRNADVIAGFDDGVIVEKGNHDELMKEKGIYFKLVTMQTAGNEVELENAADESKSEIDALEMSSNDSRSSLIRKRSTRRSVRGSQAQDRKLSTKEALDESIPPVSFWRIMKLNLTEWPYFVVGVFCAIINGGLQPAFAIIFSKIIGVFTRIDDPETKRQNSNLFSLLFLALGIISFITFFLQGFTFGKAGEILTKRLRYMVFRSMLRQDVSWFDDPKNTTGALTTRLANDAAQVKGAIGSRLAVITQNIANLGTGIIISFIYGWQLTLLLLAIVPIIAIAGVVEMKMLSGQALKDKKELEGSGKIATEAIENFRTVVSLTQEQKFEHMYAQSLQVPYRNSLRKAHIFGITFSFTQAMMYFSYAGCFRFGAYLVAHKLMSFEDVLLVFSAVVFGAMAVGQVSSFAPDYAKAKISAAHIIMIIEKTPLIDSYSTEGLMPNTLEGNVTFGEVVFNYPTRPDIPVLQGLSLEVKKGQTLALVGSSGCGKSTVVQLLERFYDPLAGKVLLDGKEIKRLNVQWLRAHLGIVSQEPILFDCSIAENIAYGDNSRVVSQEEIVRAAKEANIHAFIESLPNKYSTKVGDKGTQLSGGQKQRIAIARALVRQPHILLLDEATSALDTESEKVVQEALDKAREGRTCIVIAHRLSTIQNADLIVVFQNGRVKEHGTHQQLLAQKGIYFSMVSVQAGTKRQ
Apparent permeability coefficients (PE) of the compounds across the MDCK-MDR1 cell monolayers are measured (pH 7.4, 37° C.) in apical-to-basal (AB) and basal-to-apical (BA) transport direction. AB permeability (PEAB) represents drug absorption from the blood into the brain and BA permeability (PEBA) drug efflux from the brain back into the blood via both passive permeability as well as active transport mechanisms mediated by efflux and uptake transporters that are expressed on the MDCK-MDR1 cells, predominantly by the overexpressed human MDR1 P-gp. The compounds are assigned to permeability/absorption classes by comparison of the AB permeabilities with the AB permeabilities of reference compounds with known in vitro permeability and oral absorption in the human. Identical or similar permeabilities in both transport directions indicate passive permeation, vectorial permeability points to additional active transport mechanisms. Higher PEBA than PEAB indicates the involvement of active efflux mediated by MDR1 P-gp. Active transport is concentration-dependently saturable.
MDCK-MDR1 cells (1-2×10e5 cells/1 cm2 area) are seeded on filter inserts (Costar transwell polycarbonate or PET filters, 0.4 μm pore size) and cultured (DMEM) for 7 days. Subsequently, the MDR1 expression is boosted by culturing the cells with 5 mM sodium butyrate in full medium for 2 days. Compounds are dissolved in appropriate solvent (like DMSO, 1-20 mM stock solutions). Stock solutions are diluted with HTP-4 buffer (128.13 mM NaCl, 5.36 mM KCl, 1 mM MgSO4, 1.8 mM CaCl2, 4.17 mM NaHCO3, 1.19 mM Na2HPO4×7H2O, 0.41 mM NaH2PO4×H2O, 15 mM HEPES, 20 mM glucose, 0.25% BSA, pH 7.4) to prepare the transport solutions (0.1-300 μM compound, final DMSO<=0.5%). The transport solution (TL) is applied to the apical or basolateral donor side for measuring A-B or B-A permeability (3 filter replicates), respectively. The receiver side contains the same buffer as the donor side. Samples are collected at the start and end of experiment from the donor and at various time intervals for up to 2 hours also from the receiver side for concentration measurement by HPLC-MS/MS or scintillation counting. Sampled receiver volumes are replaced with fresh receiver solution.

The target in data set [2] is human CB1R (Homo sapiens (Human), UniProt P21554). The data set can be described thus: CB1 cAMP (assay 2). The class given is cell-based. The following applies: CHO cells expressing human CB1R; inhibition of forskolin-stimulated cAMP.
Chain of human CB1R (P21554 whole entry): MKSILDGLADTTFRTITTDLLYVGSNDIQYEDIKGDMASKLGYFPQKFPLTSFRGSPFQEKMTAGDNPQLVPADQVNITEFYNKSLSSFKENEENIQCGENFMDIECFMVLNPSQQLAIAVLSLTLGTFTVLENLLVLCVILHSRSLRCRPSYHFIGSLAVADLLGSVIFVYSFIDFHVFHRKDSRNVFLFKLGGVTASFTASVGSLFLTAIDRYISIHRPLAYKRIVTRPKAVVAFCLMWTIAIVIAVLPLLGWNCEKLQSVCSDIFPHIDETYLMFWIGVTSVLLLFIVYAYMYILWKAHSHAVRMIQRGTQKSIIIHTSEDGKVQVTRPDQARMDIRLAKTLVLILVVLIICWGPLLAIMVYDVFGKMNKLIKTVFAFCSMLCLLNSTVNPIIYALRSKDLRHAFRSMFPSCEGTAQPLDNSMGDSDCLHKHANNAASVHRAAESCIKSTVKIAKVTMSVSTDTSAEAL

Molecules are shown by their SMILES.

Take `CN(C1CCN(S(C)(=O)=O)CC1)C(C)(C)C(=O)Nc1nnc(C(C)(C)C#N)s1` [Example 8]: the efflux ratio in data set [1] worked out at 16.

Turning to `CN(CC1CCOCC1)C(C)(C)C(=O)Nc1cc(C(C)(C)C#N)no1` [Example 4], the efflux ratio in data set [1] stood at 0.75.

In the case of `CC(C)(CO)c1cc(NC(=O)C(C)(C)S(=O)(=O)C2CCOCC2)on1` [Example 2 in WO2010036630], the efflux ratio in data set [1] amounted to 7.4.

In the case of `CN(C1CCN(S(C)(=O)=O)CC1)C(C)(C)C(=O)Nc1cc(C(C)(C)C#N)no1` [Example 5], the efflux ratio in data set [1] stood at 5.1.

For the compound `CC(C)(C#N)c1cc(NC(=O)C(C)(C)S(=O)(=O)CCCC(F)(F)F)on1` [Example 1, N-[3-(Cyano-dimethyl-methyl)-isoxazol-5-yl]-2-methyl-2-(4,4,4-trifluoro-butane-1-sulfonyl)-propionamide], the efflux ratio in data set [1] was 2.2.

As for `COCC(C)(C)c1cc(NC(=O)C(C)(C)S(=O)(=O)C2CCOCC2)on1` [Example 38 in WO2010036630], in data set [2], the EC50 worked out at 50 µM. Besides, the efflux ratio in data set [1] was determined as 2.3.

Regarding `CN(CC1CCOCC1)C(C)(C)C(=O)Nc1nnc(C(C)(C)C#N)s1` [Example 7, N-[5-(Cyano-dimethyl-methyl)-[1,3,4]thiadiazol-2-yl]-2-methyl-2-[methyl-(tetrahydro-pyran-4-ylmethyl)-amino]-propionamide], the efflux ratio in data set [1] came to 2.1.

Consider `CC(C)(C#N)c1cc(NC(=O)C(C)(C)S(=O)(=O)C2CCOCC2)on1` [Example 3], for which the efflux ratio in data set [1] was determined as 2.5.

In the case of `CC(C)(O)c1cc(NC(=O)C(C)(C)S(=O)(=O)C2CCOCC2)on1` [Example 133 WO2010036630], the efflux ratio in data set [1] came out at 4.7.

With `CN(CC1CCOCC1)C(C)(C)C(=O)Nc1cc(C(C)(C)CO)no1` [Example 7 in WO2010147792], in data set [1], the efflux ratio was 1.2.

For `CN(CC1CCOCC1)C(C)(C)C(=O)Nc1nnc(C(C)(C)CO)s1` [Example 30 in WO2010147792], in data set [1], the efflux ratio was 5.2.

With `CN(C1CCN(S(C)(=O)=O)CC1)C(C)(C)C(=O)Nc1cc(C(C)(C)CO)no1` [Example 47 in WO2010147792], in data set [1], the efflux ratio amounted to 14.

In the case of `COCC(C)(C)c1cc(NC(=O)C(C)(C)N(C)CC2CCOCC2)on1` [Example 46 in WO2010147792], the efflux ratio in data set [1] worked out at 0.63.

For the compound `COCC(C)(C)c1cc(NC(=O)C(C)(C)S(=O)(=O)CC2CCOCC2)on1` [Example 17 in WO2010036630], the efflux ratio in data set [1] amounted to 4.8.

For `CC(C)(C#N)c1cc(NC(=O)C(C)(C)S(=O)(=O)CC2CCOCC2)on1` [Example 2, N-[3-(Cyano-dimethyl-methyl)-isoxazol-5-yl]-2-methyl-2-(tetrahydro-pyran-4-ylmethanesulfonyl)-propionamide], the efflux ratio in data set [1] came to 6.5.

On to `CC(C)(CO)c1cc(NC(=O)C(C)(C)S(=O)(=O)CC2CCOCC2)on1` [Example 1 in WO2010036630], for which, in data set [2], the EC50 was > 50 µM. In data set [1], the efflux ratio turned out to be 16.

By EC50 is commonly meant the concentration that produces a half-maximal response. High values mean weaker potency, low ones greater potency.
